In patent publication US20240174744A1, “METHODS OF TREATMENT USING PROTEIN BINDERS TO IRHOM2 EPITOPES” (SCIRHOM GMBH, priority 2021, published 2024):

System: PMA-induced release of HB-EGF from PBMCs from patients suffering from rheumatoid arthritis
Experiment: ELISA-based HB-EGF release assay, PBMCs from RA-patients
Assay type: cell-based
Conditions: Homo sapiens; chimeric antibodies (CHO) 1 μg/ml; Batimastat 10 μM; PMA 25 ng/ml, 6 hours
Method: In contrast to Example 35, where the inhibitory effects of the antibodies of the present disclosure on PMA-induced release of endogenous HB-EGF from primary human material obtained from healthy donors using peripheral blood mononuclear cells (PBMCs) were tested, this analysis was conducted to analyze the inhibitory effects of the antibodies of the present disclosure on PMA-induced release of endogenous HB-EGF from primary human material obtained from patients suffering from rheumatoid arthritis (RA-patients).
In brief, on day 1, Nunc black MaxiSorp® 96-well plates (Thermo Fisher Scientific, USA) were coated overnight with 100 μl per well of rat anti-human HB-EGF capture antibody (provided as part of the DuoSet ELISA kit) at 2 μg/ml TBS at 4° C. On day 2, the capture antibody solution was removed and MaxiSorp® plates were blocked with 300 μl per well of TBS, 1% BSA at room temperature for 3 hours. […]
To avoid drying-up, 30 μl TBS were added to each well of the MaxiSorp® plates immediately, followed by the transfer of 70 μl cell-free supernatant per sample. […] Using an infinite M1000 (Tecan Group, Switzerland) microplate reader, the fluorescence of each well was collected at an excitation wavelength of 435 nm and an emission wavelength of 555 nm.

CNC(=O)[C@H](Cc1ccccc1)NC(=O)[C@H](CC(C)C)[C@H](CSc1cccs1)C(=O)NO [Batimastat]
inhibition at 10 µM: 102%
